Tests used:
[1] = target: T1, Lysosomal acid glucosylceramidase (Homo sapiens) (UniProt P04062)
T1 sequence (whole entry): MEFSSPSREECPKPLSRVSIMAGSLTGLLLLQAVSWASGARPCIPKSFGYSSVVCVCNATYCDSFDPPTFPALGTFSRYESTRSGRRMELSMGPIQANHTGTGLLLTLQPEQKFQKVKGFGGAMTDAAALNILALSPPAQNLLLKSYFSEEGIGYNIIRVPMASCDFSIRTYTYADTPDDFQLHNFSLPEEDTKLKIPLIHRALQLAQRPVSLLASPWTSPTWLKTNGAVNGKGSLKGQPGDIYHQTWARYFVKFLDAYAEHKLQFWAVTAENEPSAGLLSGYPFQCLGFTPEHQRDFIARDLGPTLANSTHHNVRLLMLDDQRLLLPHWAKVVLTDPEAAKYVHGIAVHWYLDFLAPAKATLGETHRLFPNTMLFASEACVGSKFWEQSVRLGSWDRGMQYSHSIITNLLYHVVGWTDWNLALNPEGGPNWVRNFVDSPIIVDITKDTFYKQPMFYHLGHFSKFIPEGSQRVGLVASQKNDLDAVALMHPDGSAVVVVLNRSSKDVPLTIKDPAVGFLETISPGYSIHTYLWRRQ
Description: Binding affinity to synthetic recombinant wild type GCase enzyme velaglucerase alfa (unknown origin) assessed as thermal stabilization by measuring change in melting temperature at lower concentration at pH 5 for every 10 secs by Sypro Orange-dye based fluorescence thermal shift assay

[2] = target: T2, Lysosomal acid glucosylceramidase (Homo sapiens, UniProt P04062); assay: Inhibition of synthetic recombinant wild type GCase enzyme velaglucerase alfa (unknown origin) at pH 5.9 preincubated for 5 mins followed by addition of 4-Methylumbelliferyl beta-D-glucopyranoside as substrate measured after 30 mins by fluorescence analysis
T2 sequence (P04062 whole entry): T1 sequence (whole entry)

ΔTm [1] | IC50 [2] | Structure (SMILES)
11 °C | – | c1ccc2c(c1)CC(Nc1nc(-c3ccsc3)nc3ccccc13)C2
– | 20 nM | C[C@H]1CC[C@H](Nc2nc(-c3cccnc3)nc3ccccc23)CC1

From ChEMBL document CHEMBL3860057, “Design and Synthesis of Potent Quinazolines as Selective β-Glucocerebrosidase Modulators” (J Med Chem, 2016)
